Experimental data reported in ChEMBL document CHEMBL6127020, “Discovery of aminopiperidine based potent & novel topoisomerase inhibitor with broad spectrum anti-bacterial activity” (Bioorg Med Chem Lett, 2024).
In brackets after ≈: the same amount, converted by molar mass.

Experiments:
[1] = tested on: Escherichia coli; assay: Antibacterial activity against Escherichia coli ATCC 25922 assessed as inhibition of bacterial growth; assay type: functional
[2] = tested on: Staphylococcus aureus; assay: Antibacterial activity against Staphylococcus aureus ATCC 29213 assessed as inhibition of bacterial growth; assay type: functional
[3] = target: Topoisomerase IV (Staphylococcus aureus, UniProt P0C1S7+P0C1U9); assay: Inhibition of Staphylococcus aureus DNA topoisomerase 4; assay type: protein-complex assay
Topoisomerase IV, sequence (P0C1U9 whole entry): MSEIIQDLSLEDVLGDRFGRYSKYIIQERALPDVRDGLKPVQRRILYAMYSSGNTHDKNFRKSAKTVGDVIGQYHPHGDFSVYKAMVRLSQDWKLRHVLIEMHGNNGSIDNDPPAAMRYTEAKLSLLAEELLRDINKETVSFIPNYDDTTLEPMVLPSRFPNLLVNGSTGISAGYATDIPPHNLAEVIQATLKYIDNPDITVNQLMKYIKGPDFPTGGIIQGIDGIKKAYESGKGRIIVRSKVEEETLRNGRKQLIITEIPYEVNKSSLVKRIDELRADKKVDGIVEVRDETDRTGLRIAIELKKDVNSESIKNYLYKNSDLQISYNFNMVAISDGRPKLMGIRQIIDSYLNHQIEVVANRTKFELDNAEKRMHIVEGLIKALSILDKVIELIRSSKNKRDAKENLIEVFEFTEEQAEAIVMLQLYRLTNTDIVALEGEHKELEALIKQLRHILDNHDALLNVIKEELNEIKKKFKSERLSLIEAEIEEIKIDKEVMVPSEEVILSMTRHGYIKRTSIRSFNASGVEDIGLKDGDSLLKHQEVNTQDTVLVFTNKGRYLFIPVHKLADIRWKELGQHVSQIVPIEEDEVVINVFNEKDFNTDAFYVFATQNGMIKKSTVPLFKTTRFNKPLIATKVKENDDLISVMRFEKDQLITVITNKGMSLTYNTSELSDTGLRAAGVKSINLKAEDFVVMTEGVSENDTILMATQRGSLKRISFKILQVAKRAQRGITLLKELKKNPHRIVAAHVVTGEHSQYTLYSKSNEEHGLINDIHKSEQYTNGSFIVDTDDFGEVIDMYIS
Topoisomerase IV, sequence (P0C1S7 whole entry): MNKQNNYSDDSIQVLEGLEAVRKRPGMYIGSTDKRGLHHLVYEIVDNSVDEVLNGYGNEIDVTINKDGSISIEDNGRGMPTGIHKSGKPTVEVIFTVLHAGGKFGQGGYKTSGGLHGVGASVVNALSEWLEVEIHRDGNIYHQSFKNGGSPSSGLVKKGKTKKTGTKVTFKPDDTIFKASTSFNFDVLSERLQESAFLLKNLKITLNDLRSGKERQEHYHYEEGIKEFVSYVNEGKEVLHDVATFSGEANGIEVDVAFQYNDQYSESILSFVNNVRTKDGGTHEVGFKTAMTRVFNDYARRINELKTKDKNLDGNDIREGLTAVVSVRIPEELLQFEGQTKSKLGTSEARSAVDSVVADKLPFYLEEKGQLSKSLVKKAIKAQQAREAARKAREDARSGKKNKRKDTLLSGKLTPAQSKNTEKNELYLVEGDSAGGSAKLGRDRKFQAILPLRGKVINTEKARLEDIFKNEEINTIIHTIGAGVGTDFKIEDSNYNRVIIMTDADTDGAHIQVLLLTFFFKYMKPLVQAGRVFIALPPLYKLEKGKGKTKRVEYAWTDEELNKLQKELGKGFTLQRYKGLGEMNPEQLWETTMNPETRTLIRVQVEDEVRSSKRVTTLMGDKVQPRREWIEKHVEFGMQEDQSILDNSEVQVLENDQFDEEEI

[4] = target: T1, Cytochrome P450 2C8 (Homo sapiens, UniProt P10632); assay: Inhibition of CYP2C8 (unknown origin) at 10 uM; assay type: ADME
T1 sequence (P10632 whole entry): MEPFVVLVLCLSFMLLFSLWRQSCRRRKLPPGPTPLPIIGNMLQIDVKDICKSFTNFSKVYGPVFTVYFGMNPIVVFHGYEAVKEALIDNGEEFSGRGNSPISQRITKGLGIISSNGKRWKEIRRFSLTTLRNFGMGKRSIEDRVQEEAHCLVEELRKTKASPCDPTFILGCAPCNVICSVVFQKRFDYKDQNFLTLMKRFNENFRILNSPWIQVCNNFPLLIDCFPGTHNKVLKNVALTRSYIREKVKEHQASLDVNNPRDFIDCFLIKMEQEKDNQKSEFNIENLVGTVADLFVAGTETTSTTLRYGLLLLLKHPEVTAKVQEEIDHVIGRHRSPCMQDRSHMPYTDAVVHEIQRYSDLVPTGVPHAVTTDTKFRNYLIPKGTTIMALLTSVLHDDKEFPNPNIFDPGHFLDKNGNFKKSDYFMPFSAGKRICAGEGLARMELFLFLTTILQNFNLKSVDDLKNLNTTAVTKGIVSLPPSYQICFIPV

[5] = target: Cytochrome P450 2D6 (Homo sapiens, UniProt P10635); assay: Inhibition of CYP2D6 (unknown origin) at 10 uM; assay type: ADME
Cytochrome P450 2D6, sequence (P10635 whole entry): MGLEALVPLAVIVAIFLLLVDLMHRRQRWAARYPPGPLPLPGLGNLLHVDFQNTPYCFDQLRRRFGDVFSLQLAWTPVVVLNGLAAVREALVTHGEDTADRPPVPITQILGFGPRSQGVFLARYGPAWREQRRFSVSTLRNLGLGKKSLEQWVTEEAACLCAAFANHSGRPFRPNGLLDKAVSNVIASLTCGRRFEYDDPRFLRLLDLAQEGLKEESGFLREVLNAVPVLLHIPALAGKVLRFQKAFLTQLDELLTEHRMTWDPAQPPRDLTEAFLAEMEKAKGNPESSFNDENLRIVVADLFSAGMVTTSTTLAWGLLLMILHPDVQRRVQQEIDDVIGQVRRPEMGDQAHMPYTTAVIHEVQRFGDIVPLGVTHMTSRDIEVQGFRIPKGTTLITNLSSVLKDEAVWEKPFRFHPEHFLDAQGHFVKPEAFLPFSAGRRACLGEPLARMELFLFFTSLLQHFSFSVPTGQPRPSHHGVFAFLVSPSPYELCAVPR

[6] = target: Cytochrome P450 3A4 (Homo sapiens, UniProt P08684); assay: Inhibition of CYP3A4 (unknown origin) at 10 uM; assay type: ADME
Cytochrome P450 3A4, sequence (P08684 whole entry): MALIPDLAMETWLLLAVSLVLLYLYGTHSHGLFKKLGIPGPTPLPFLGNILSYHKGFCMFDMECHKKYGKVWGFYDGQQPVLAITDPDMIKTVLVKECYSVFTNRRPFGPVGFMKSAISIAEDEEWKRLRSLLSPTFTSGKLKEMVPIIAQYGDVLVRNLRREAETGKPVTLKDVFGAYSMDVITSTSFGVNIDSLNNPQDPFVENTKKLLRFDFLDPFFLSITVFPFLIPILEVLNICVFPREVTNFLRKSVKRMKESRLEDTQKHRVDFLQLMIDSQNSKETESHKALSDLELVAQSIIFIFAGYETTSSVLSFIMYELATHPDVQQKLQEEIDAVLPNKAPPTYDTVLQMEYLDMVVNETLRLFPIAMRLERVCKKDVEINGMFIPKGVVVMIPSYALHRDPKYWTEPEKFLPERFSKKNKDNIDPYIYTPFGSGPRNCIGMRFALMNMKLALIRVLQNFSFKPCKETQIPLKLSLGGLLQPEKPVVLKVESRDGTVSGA

[7] = target: DNA gyrase (Staphylococcus aureus, UniProt P0A0K8+P20831); assay: Inhibition of Staphylococcus aureus DNA gyrase; assay type: protein-complex assay
DNA gyrase, sequence (P0A0K8 whole entry): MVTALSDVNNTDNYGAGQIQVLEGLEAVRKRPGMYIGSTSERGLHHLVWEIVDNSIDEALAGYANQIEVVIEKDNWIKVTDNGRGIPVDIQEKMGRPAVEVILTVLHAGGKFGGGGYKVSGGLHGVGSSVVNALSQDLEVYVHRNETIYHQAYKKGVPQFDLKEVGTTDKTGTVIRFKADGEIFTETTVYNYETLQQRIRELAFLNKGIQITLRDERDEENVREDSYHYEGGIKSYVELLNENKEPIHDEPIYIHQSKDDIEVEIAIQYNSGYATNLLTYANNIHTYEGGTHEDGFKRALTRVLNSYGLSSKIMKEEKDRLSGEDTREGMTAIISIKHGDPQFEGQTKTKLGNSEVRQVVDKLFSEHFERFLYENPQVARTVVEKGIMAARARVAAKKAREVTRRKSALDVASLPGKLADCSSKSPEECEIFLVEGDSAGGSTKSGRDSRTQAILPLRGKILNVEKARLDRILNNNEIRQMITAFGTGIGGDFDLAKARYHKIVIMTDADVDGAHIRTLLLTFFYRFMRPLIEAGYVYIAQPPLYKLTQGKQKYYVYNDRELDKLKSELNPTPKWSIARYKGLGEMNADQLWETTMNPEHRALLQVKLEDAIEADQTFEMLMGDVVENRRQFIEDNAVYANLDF
DNA gyrase, sequence (P20831 whole entry): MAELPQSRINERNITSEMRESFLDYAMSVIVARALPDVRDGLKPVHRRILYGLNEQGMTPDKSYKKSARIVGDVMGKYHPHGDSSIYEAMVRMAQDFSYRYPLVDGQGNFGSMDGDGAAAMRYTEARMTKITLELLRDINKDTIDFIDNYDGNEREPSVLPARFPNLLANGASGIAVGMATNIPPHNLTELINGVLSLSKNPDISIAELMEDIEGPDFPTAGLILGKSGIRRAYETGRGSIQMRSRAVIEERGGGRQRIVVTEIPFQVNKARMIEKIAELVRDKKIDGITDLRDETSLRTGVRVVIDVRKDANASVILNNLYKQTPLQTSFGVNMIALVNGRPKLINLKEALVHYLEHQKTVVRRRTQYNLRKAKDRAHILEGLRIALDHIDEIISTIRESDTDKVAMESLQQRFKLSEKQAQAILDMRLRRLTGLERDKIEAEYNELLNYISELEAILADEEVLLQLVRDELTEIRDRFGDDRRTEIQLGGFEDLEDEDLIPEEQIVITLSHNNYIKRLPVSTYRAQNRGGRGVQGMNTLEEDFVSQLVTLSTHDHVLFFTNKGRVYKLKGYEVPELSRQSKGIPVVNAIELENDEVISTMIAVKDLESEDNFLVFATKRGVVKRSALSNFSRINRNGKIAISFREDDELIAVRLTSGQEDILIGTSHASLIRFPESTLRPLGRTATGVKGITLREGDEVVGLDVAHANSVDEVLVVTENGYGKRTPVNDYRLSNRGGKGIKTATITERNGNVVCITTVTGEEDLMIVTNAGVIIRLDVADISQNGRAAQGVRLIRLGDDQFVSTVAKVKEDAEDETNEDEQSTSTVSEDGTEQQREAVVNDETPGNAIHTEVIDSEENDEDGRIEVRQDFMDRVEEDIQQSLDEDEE

[8] = target: T2, Cytochrome P450 1A2 (Homo sapiens, UniProt P05177); assay: Inhibition of CYP1A2 (unknown origin) at 10 uM; assay type: ADME
T2 sequence (P05177 whole entry): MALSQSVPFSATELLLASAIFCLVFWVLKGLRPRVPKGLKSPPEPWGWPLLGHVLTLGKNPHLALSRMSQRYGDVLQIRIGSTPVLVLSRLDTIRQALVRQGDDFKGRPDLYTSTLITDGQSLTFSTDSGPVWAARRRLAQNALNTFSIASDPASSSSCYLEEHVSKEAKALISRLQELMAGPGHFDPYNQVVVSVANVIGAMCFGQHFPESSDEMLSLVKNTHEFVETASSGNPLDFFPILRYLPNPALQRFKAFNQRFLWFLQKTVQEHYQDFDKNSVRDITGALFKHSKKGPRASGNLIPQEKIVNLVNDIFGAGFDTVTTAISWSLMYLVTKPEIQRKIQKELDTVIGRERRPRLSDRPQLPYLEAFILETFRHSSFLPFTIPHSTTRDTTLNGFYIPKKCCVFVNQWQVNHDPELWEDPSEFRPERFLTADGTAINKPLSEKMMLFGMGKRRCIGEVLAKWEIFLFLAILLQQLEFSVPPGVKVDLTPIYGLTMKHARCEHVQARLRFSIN

[9] = target: Cytochrome P450 2C19 (Homo sapiens, UniProt P33261); assay: Inhibition of CYP2C19 (unknown origin) at 10 uM; assay type: ADME
Cytochrome P450 2C19, sequence (P33261 whole entry): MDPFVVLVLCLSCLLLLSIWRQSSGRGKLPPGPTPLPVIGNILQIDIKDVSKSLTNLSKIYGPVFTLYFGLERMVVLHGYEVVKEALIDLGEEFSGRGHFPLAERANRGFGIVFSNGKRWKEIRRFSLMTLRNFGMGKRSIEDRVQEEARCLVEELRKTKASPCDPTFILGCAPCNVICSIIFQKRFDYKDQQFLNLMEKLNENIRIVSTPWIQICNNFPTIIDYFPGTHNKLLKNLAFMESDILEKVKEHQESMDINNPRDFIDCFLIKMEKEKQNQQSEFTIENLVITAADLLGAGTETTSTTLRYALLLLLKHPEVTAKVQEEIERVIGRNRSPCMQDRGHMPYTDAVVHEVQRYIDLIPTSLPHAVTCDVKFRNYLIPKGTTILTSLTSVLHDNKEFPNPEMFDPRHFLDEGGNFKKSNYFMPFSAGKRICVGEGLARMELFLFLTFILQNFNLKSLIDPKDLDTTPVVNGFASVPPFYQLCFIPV

Structure (SMILES)	MIC [1]	MIC [2]	other results
N#Cc1cnn2ccc(=O)n(CCN3CCC(NCc4cc5c(cn4)OCCC5)CC3)c12	2 µg/mL (≈ 4.61 µM)	2 µg/mL (≈ 4.61 µM)	–
c1ccc2c(c1)Sc1ccccc1N2CCN1CCC(NCc2cc3c(cn2)OCCC3)CC1	> 16 µg/mL	16 µg/mL (≈ 33.9 µM)	–
CCOC(=O)C1COc2ccc(CNC3CCN(CCn4c(=O)ccc5ccc(C#N)cc54)CC3)cc2O1 (configuration not stated)	> 16 µg/mL	> 16 µg/mL	–
N#Cc1ccc2ccc(=O)n(CCN3CCC(NCc4ccc5c(c4)OC(C(=O)O)CO5)CC3)c2c1 (configuration not stated)	> 16 µg/mL	> 16 µg/mL	–
CCOC(=O)C1COc2cc(CNC3CCN(CCn4c(=O)ccc5ccc(C#N)cc54)CC3)ccc2O1 (configuration not stated)	> 16 µg/mL	> 16 µg/mL	–
N#Cc1ccc2ccc(=O)n(CCN3CCC(NCc4ccc5c(c4)OCC(=O)N5)CC3)c2c1	> 16 µg/mL	> 16 µg/mL	–
N#Cc1ccc2ccc(=O)n(CCN3CCC(NCc4ccc5c(c4)NC(=O)CO5)CC3)c2c1	–	–	IC50 [3]: 1300 nM; inhibition (INH) [4]: Not Active; inhibition (INH) [5]: Not Active; inhibition (INH) [6]: Not Active; IC50 [7]: 3.4 nM; inhibition (INH) [8]: Not Active; inhibition (INH) [9]: Not Active
N#Cc1ccc2ccc(=O)n(CCN3CCC(NCc4ccc5c(c4)CCCO5)CC3)c2c1	0.25 µg/mL (≈ 0.565 µM)	< 0.125 µg/mL	–
O=S1(=O)c2ccccc2-c2ccccc2N1CCN1CCC(NCc2cc3c(cn2)OCCC3)CC1	> 16 µg/mL	> 16 µg/mL	–
O=c1c2ccccc2c2ncccc2n1CCN1CCC(NCc2cc3c(cn2)OCCC3)CC1	> 16 µg/mL	2 µg/mL (≈ 4.26 µM)	–
N#Cc1ccc2ccc(=O)n(CCN3CCC(NCc4ccc5c(c4)OCCO5)CC3)c2c1	–	< 0.125 µg/mL	IC50 [3]: 900 nM; inhibition (INH) [4]: Not Active; inhibition (INH) [5]: Not Active; inhibition (INH) [6]: Not Active; IC50 [7]: 44 nM; inhibition (INH) [8]: Not Active; inhibition (INH) [9]: Not Active
N#Cc1ccc2ccc(=O)n(CCN3CCC(NCc4cc5c(cn4)OCCC5)CC3)c2c1	0.5 µg/mL (≈ 1.13 µM)	0.125 µg/mL (≈ 0.282 µM)	–
c1ccc2c(c1)-c1ccccc1C2CCN1CCC(NCc2cc3c(cn2)OCCC3)CC1	> 16 µg/mL	> 16 µg/mL	–
